Assay [1] addresses T1, ERα (Homo sapiens, UniProt P03372).
T1 construct: endogenous in cells; host or cells: SH-SY5Y human neuroblastoma cells
T1 sequence (P03372 1-595): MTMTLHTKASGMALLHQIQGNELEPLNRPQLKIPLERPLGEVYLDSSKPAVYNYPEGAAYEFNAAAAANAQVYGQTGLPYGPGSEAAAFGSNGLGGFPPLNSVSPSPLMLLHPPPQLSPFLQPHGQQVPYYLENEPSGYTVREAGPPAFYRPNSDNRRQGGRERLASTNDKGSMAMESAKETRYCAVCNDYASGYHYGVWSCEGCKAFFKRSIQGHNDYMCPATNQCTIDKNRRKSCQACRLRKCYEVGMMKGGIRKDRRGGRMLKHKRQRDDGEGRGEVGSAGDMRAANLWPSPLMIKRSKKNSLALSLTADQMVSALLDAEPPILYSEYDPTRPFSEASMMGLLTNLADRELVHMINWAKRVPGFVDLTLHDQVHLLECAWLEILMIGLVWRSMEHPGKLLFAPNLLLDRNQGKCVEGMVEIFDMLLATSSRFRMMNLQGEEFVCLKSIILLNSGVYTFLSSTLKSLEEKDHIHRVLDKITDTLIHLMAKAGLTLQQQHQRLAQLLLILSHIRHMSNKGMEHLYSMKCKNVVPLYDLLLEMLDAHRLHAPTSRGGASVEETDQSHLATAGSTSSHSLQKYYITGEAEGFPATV
Briefly: ChIP, ERα binding to the ERE half site in the TH promoter. Type of assay: cell-based. The settings on record: SH-SY5Y, treatment alone vs control. How it is done: (§1) Human neuroblastoma SH-SY5Y cells were grown in DMEM/F12 medium containing 10% fetal bovine serum (FBS) and 1% antibiotic/antimycotic mix. Cells were maintained at 37° C. in a saturated humidity atmosphere containing 95% air and 5% CO2.
(§2) ChIP analysis was performed to evaluate the extent of ERα/ERβ and LXRα/LXRβ binding to the DNA elements in the TH promoter and α-synuclein promoter regions respectively using “SimpleChIP™ Enzymatic Chromatic IP kit” from Cell Signaling (Boston, Mass.).
(§3) Briefly, cells from each treatment group (3×10^6 cells) were washed with PBS, trypsinized, centrifuged at 5000 g. The pellet containing the cells was further washed with PBS and cross-linked using 37% formaldehyde for 15 min followed by the addition of glycine solution to cease the cross-linking reaction.
(§4) The cells were washed with 4× volumes of 1×PBS and centrifuged at ˜220 g for 5 min. The pellet was resuspended and incubated for 10 min in 5 ml of tissue lysis buffer containing DTT and protease and phosphatase inhibitors. The subsequent steps to isolate the cross-linked chromatin were performed according to the manufacturer's protocol.
(§5) The cross-linked chromatin from each sample was apportioned into four equal parts.

In assay [2] the target is T2, LXRα (Homo sapiens, UniProt Q13133).
T2 construct: endogenous in cells; host or cells: SH-SY5Y human neuroblastoma cells
T2 sequence (Q13133 1-447): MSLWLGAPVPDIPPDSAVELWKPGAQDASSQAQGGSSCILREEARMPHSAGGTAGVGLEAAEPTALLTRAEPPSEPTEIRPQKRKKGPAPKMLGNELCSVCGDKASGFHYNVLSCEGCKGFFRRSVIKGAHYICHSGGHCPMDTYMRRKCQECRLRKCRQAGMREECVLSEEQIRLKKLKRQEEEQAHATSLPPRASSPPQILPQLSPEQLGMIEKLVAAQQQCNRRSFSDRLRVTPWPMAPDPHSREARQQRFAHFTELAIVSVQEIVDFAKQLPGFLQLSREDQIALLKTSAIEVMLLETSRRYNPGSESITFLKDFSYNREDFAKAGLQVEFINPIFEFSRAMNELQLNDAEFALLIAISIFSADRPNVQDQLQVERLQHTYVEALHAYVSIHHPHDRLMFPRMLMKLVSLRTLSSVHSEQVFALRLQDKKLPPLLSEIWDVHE
Briefly: Western blot of LXRα levels in the nucleus, SH-SY5Y cells. Type of assay: cell-based. The conditions noted are these: for LXRα protein levels in the nucleus: 24 h, treatment alone vs control; for 27-OHC-induced increase in LXRα in the nucleus: co-treatment with 10 μM 27-OHC. How it is done: as §1
(§6) Treated SH-SY5Y cells were washed with PBS and trypsinized to collect the cells and centrifuged at 5000 g. The pellet was washed again with PBS and homogenized in NE-PER tissue protein extraction reagent (Thermo Scientific, Rockford, Ill.) supplemented with protease and phosphatase inhibitors. Protein concentrations from the cytosolic and nuclear homogenates were determined with BCA protein assay.
(§7) Proteins (10 μg) were separated on SDS-PAGE gels, transferred to a polyvinylidene difluoride membrane (BioRad, Hercules, Calif.), and incubated with the following monoclonal antibodies: anti-TH mouse antibody (1:1000; Sigma Aldrich, Saint Louis, Mo.), anti-α-synuclein mouse antibody (1:500; Chemicon, Temecula, Calif.), anti-ERα rabbit antibody (1:500; Abcam, Cambridge, Mass.), anti-ERβ rabbit antibody (1:200; Upstate, Lake Placid, N.Y.), anti-LXRα rabbit antibody (1:500; Abcam, Cambridge, Mass.), anti-LXRβ mouse antibody (1:500; Abcam, Cambridge, Mass.).
(§8) β-actin and Lamin A were used as a gel loading control for cytosolic homogenates and nuclear homogenates respectively. The blots were developed with enhanced chemiluminescence (Immmun-star HRP chemiluminescent kit, Bio-Rad, Hercules, Calif.). Bands were visualized on a polyvinylidene difluoride membrane and analyzed by LabWorks 4.5 software on a UVP Bioimaging System (Upland, Calif.). Quantification of results was performed by densitometry and the results analyzed as total integrated densitometric values (arbitrary units).
A general note: In western blotting, separated proteins are transferred to a membrane and probed.

The target in assay [3] is T3, ERβ (Homo sapiens, UniProt Q92731).
T3 construct: endogenous in cells; host or cells: SH-SY5Y human neuroblastoma cells
T3 sequence (Q92731 whole entry): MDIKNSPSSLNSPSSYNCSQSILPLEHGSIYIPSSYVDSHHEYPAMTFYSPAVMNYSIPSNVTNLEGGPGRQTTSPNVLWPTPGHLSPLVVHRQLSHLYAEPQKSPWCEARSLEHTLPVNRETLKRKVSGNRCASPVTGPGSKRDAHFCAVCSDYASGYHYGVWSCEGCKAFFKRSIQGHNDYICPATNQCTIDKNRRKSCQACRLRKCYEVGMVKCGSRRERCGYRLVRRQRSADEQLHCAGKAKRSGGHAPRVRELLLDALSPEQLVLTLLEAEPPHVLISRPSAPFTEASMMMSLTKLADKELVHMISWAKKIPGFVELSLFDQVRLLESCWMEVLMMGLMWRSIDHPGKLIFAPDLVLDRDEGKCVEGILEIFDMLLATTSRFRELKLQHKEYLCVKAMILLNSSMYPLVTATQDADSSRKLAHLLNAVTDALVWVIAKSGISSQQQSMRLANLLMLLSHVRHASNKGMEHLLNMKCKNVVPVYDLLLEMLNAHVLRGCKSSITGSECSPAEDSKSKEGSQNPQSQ
Briefly: ChIP, ERβ binding to the ERE half site in the TH promoter. The settings on record: SH-SY5Y, treatment alone vs control. In kind it is cell-based. On the procedure: as §1, §2, §3, §4, §5

For assay [4], the system named is LXRα/β. Put plainly: EMSA, binding of LXRα/β to probe for the LXRE in the α-synuclein promoter. In kind it is cell-based, human. The settings on record: for binding of LXRα/β to the exogenous DNA sequence containing the LXRE: nuclear extracts of treated SH-SY5Y, treatment alone vs control. (In general: A gel shift assay detects complexes by their altered migration in electrophoresis.)

The subject of assay [5] is TH. Briefly: Western blot of TH protein levels in SH-SY5Y neuroblastoma cells. In kind it is cell-based, human. The settings on record: for TH protein levels / TH expression: 24 h, treatment alone vs control (10 μM 27-OHC, 1 nM estradiol, 10 μM GW3965, 10 μM ECHS). On the procedure: as §1, §6, §7, §8
For assay [6], the system named is TH mRNA. Briefly: Real time RT-PCR of TH mRNA in SH-SY5Y cells. Type of assay: cell-based, human. The conditions noted are these: 24 h, treatment alone vs control. On the procedure: as §1
Total RNA was isolated and extracted from treated cells using the 5 prime “PerfectPure RNA tissue kit” (5 Prime, Inc., Gaithersburg, Md.). RNA estimation was performed using “Quant-iT RNA Assay Kit” using a Qubit fluorometer according to the manufacturer's protocol (Invitrogen, Carlsbad, Calif.). cDNA was synthesized by reverse transcribing 1 μg of extracted RNA using an “iScript cDNA synthesis kit” (BioRad, Hercules, Calif.). The oligomeric primers (Sigma, St Louis, Mo.) used to amplify the TH mRNA and α-synuclein mRNA are enumerated in Table 1. The cDNA amplification was performed using an iQ SYBR Green Supermix kit following the manufacturer's instructions (BioRad, Hercules, Calif.). The amplification was performed using an iCycler iQ Multicolor Real Time PCR Detection System (BioRad, Hercules, Calif.). The expression of specific TH and α-synuclein transcripts amplified were normalized to the expression of glyceraldehyde-3-phosphate dehydrogenase (GAPDH).

Assay [7] has as its system ARPE-19 cells. Briefly: ROS levels in ARPE-19 cells. Type of assay: cell-based. The settings on record: ARPE-19, 24 h.

Structures are written as SMILES.

The results in this text go back to patent US20150031655A1, “COMBINATION OF LIVER X RECEPTOR MODULATOR AND ESTROGEN RECEPTOR MODULATOR FOR THE TREATMENT OF AGE-RELATED DISEASES” (UNIVERSITY OF NORTH DAKOTA, priority 2011, published 2015).

On to `C[C@@H](CO)CCC[C@@H](C)[C@H]1CC[C@H]2[C@@H]3CC=C4C[C@@H](O)CC[C@]4(C)[C@H]3CC[C@]12C` [27-OHC, 27-hydroxycholesterol], for which the “ERα binding to the ERE on the TH promoter” value in assay [1] was “no significant attenuation”. Further, in assay [2], the “LXRα protein levels in the nucleus” value is given as “increases”. The “attenuation of ERβ binding to the ERE on the TH promoter” value in assay [3] stood at 4 fold. Besides, the “binding of LXRα/β to the exogenous DNA sequence containing the LXRE” value in assay [4] was “increases”. Further, the “TH protein levels / TH expression” value in assay [5] was “significant decrease”. Further, the “TH mRNA” value in assay [6] is “reduces”. Moreover, in assay [7] (10 μM, alone vs control), the “reactive oxygen species (ROS) levels” value is reported as “increases”.
As to `CC(C)CCC[C@@H](C)[C@H]1CC[C@H]2[C@@H]3C[C@@H]4O[C@@]45C[C@@H](OS(=O)(=O)O)CC[C@]5(C)[C@H]3CC[C@]12C` [ECHS, 5α,6α-epoxycholesterol-3-sulfate], in assay [2], the “LXRα protein levels in the nucleus” value is given as “reduced” and the “27-OHC-induced increase in LXRα in the nucleus” value is “significantly attenuated”. Also, the “27-OHC-induced increase in LXRα/β binding to the LXRE consensus motif” value in assay [4] (co-treatment with 27-OHC) is recorded as “mitigates”. In assay [4], the “binding of LXRα/β to the exogenous DNA sequence containing the LXRE” value is on record as “decreased”. Besides, in assay [5], the “TH protein levels / TH expression” value is on record as “no effect”. The “effect of estradiol on 27-OHC-induced decrease in TH expression” value in assay [5] (ECHS added to 27-OHC+estradiol) is recorded as “does not alter”. Besides, the TH expression result in assay [5] (in combination with estradiol) is given as “no effect”. Also, the “27-OHC-induced increase in ROS levels” value in assay [7] (co-treatment with 27-OHC, all at 10 μM) is reported as “reduced”.
Take `Cl.O=C(O)Cc1cccc(OCCCN(Cc2cccc(C(F)(F)F)c2Cl)CC(c2ccccc2)c2ccccc2)c1` [GW3965, 3-[3-[N-(2-Chloro-3-trifluoromethylbenzyl)-(2,2-diphenylethyl)amino]propyloxy]phenylacetic acid hydrochloride]: in assay [2], the “LXRα protein levels in the nucleus” value is on record as “more pronounced increase” and the “27-OHC-induced increase in LXRα in the nucleus” value is given as “to the same extent”. In assay [5], the “TH protein levels / TH expression” value is on record as “no effect”.
